{"source": "patent US10829506B2", "about": "“Amino- or ammonium-containing sulfonic acid, phosphonic acid and carboxylic acid derivatives and their medical use” (GRI Bio, Inc., priority 2011, dated 2020)", "key": {"RBL-2H3 cells": {"tested_on": "RBL-2H3 cells", "test": "Inhibition of mast cell degranulation (β-hexosaminidase release)", "type": "cell-based, rat", "details": "Rattus norvegicus, RBL-2H3 cells sensitized with anti-DNP IgE, triggered with DNP-HSA, 1 h preincubation", "text": "Mast cells are key effector cells involved in allergic and inflammatory diseases, and the Rat Basophilic Leukemia clone 2H3 (RBL-2H3) cell line is a commonly used model of allergen dependent immune modulator release (degranulation) in mast cells. On their surface, they express the high affinity receptor for IgE (FcεRI). Upon binding of antigen-specific IgE to the receptor, cells become sensitized to the IgE specific antigen (allergen). When IgE-sensitized cells then encounter multivalent antigen, the antigen clusters IgE-FcεRI complexes and initiates a signal transduction cascade that leads to degranulation, that is, the release of inflammatory mediators, such as cytokines, eicosanoids, histamine and enzymes. The assay can be used as a screening method to identify immune-modulating compounds, in particular compounds useful in the medical management of allergic and inflammatory diseases and asthma, β-hexosaminidase was previously shown to be released with the same kinetics as histamine (Schwartz et al., J Immunology; 123:1445-1450 (1979)), thus offering a simple means to monitor degranulation. The RBL-2H3 cell line has been successfully used to identify compounds with anti-allergic activity (Choo et al. Planta Med., 69:518-522 (2003)).\nCell Culture: RBL-2H3 cells obtained from the German Collection of Microorganisms and Cell Cultures (ACC312) (Braunschweig, Germany) were maintained in 70% Minimum Essential Medium with Earle's Salts, 20% RPMI 1640 Medium, 10% FBS and 2 mM l-glutamine in 95% air/5% CO2 at 37° C. and routinely checked for mycoplasma contamination. Cells were passaged every 3-4 days; after washing cells once with 35 ml PBS cells were incubated 8 min with 5 ml 0.05% Trypsin-EDTA solution at 37° C. Cells were removed from the incubator, 15 ml culture medium was added and cells were resuspended by repeated pipetting.\nCell seeding: cells were harvested with Trypsin-EDTA as described and 50-100 μl cell suspension seeded Into Costar CellBind 24 well cluster plates (no. 3337). Plates were kept for 30 min at RT under the sterile hood before being transferred to the incubator. Cells were used within one or two days after seeding.\nFor sensitization, cells for immediate use were sensitized 6-12 h after plating; cells to be used the following day were sensitized 26-38 h after plating. Culture plates were removed from the incubator and checked for cell growth and contamination. The medium was discarded and cells were sensitized with anti-DNP IgE (0.4 μg/ml) in 0.4 ml culture medium overnight. Following overnight sensitization, cells were washed with 0.8 ml pre-warmed TyB and 0.38 ml test compound or vehicle control (supplemented or not with 1% FBS) were added to duplicate wells. Samples were adjusted to contain 1% vehicle for test compounds dissolved in organic solvents. Cells were incubated for 1 h at 37° C. At the end of the incubation period, cells were routinely stimulated with 20 μl DNP-HSA (2 μg/ml; final concentration 0.1 μg/ml) diluted in TyB and cells were incubated for 15 min at 37° C. Alternatively, cells were stimulated with 20 μl […] (final concentration 0.25 μM) or 20 nM […] (final concentration 0.25 μM), both in the absence or presence of 20 nM PMA (final concentration).\nPlates were removed from the incubator and immediately centrifuged at 4° C. for 5 min at 250×g and transferred to an ice bath. Aliquots of supernatants, 25 μl, were transferred to 96-well plates. Remaining supernatant was aspirated from control wells and cells were lysed in […] lysis buffer for 5 min at RT on an orbital shaker at 450 rpm under non-sterile conditions. After lysis, 25 μl aliquots of lysates were transferred to 96-well plates.\nMUG substrate solution, 100 μl, were added to supernatant and lysate samples and plates were incubated 30 min at 37° C. The reaction was terminated by addition of 150 μl stop solution. Fluorescence was measured at 365 nm excitation and 440 nm emission wavelengths. […]"}, "BALB/c-mice": {"tested_on": "BALB/c-mice", "test": "Allergic contact dermatitis model (TDI), mouse ear swelling test", "type": "in vivo", "procedure": "The anti-inflammatory and anti-allergic effects of compound 1a were assessed in a mouse model of allergic contact dermatitis, a response driven primarily by T helper type 2 (Th2) cells. […] In this model, an allergic dermatitis response is obtained by sensitizing mice to TDI and subsequently challenging them with antigen by topical administration onto the ears. A quantitative assessment of anti-inflammatory and anti-allergic effects of topically or orally administered test compounds is possible by measuring the resulting ear swelling.\nFemale BALB/c-mice were obtained from Charles River (Sulzfeld, Germany) at age 8 weeks. All animals were housed in groups of eight per cage at 22° C. with a 12 h light/dark-cycle. Water and a standard diet (Aitromin, Lage/Lippe, Germany) were available ad libitum. All animals were acclimatized for one week before experimental procedures were commenced.\nExperimental procedures for BALB/c mice housing, TDI sensitization and challenge, and measurement of ear thickness were performed as previously described (Baurner et al., J Pharm Pharmacol. 55:1107-1114 (2003)) with the following modifications. For active sensitization, 100 μL of 5% (w/v) TDI was administered to the shaved and stripped abdominal epidermis on day one, and for the next three consecutive days, 50 μL of 5% (w/v) TDI was applied. The allergic reaction was boosted 21 days later by application of 50 μL of 0.5% (w/v) TDI. For the examination of test compound effects, the left ears were used for the TDI challenge (20 μL of 0.5% in acetone) and ear thickness measured 3 h before and 24 h after challenge.\nGroup size was n=7 mice unless otherwise stated. Test compounds were freshly prepared before administration.\nAdministration time: to determine optimal time for administration treatment groups were treated orally by gavage with 100 mg/kg of compound 1a (suspended in phosphate-buffered saline (PBS), 10 mL/kg) 4 or 16 h before topical TDI challenge. Vehicle treated mice received PBS (10 mL/kg) orally, 4 h before challenge.\nDose-response: two groups of mice were treated orally with compound 1a at 20 mg/kg or 100 mg/kg suspended in PBS, 4 h before topical TDI challenge. Vehicle treated mice received PBS orally 4 h before challenge.\nCompound 1a was administered to two groups of mice topically in 20 μl of a 2% or 6% solution in acetone/water (1:1). The solution was applied, 2 h before topical TDI challenge by administration of 10 μl onto each of the inner and outer surfaces of the left ears. A vehicle group (n=7) was treated with acetone/water (1:1).\nMean and standard error of the mean (SEM) were calculated from individual ear edema values. […]"}}, "note": "Values joined by “and” are separate entries in the source; they are usually repeats but may differ in a detail not shown here. Equal entries are not always repeated."}
{"smiles": "CCCCCCCCCCCCCC[N+](C)(C)CCCS(=O)(=O)[O-]", "note": "[Compound 1a, 3-(N,N-Dimethylmyristylammonio)-Propanesulfonate]", "values": [{"measurement": "IC50", "setting": "RBL-2H3 cells", "result": 3.2, "unit": "µM"}, {"measurement": "Inhibition of mouse ear swelling (allergic contact dermatitis)", "setting": "BALB/c-mice; oral 100 mg/kg, 4 h before TDI challenge", "result": "52% and 51.7* %"}, {"measurement": "Inhibition of mouse ear swelling (allergic contact dermatitis)", "setting": "BALB/c-mice; oral 100 mg/kg, 16 h before TDI challenge", "result": 32.2}, {"measurement": "Inhibition of mouse ear swelling (allergic contact dermatitis)", "setting": "BALB/c-mice; topical 2% solution, 2 h before TDI challenge", "result": 72, "unit": "%"}, {"measurement": "Inhibition of mouse ear swelling (allergic contact dermatitis)", "setting": "BALB/c-mice; topical 6% solution, 2 h before TDI challenge", "result": 86, "unit": "%"}]}
